According to patent US4968697A, “2-substituted adenosine 5'-carboxamides as antihypertensive agents” (Ciba-Geigy Corporation, priority 1989, dated 1990):
Structures can show the parent of a compound that is named as a salt.

Assays:
normotensive rat = test: blood pressure lowering effect in normotensive rats (i.v.); assay type: in vivo; conditions: iv, read-out: dose that lowers blood pressure (as low as)
Method: (§1) Indicative of in vivo adenosine receptor agonist activity, the hypotensive activity of the compounds of the invention as well as their effect on heart rate can be measured in normotensive or spontaneous hypertensive rats on intravenous or oral administration.
Typically, the blood pressure lowering effect in normotensive rats can be determined as follows:
Adult male rats weighing 300-400 g are anesthetized using Inactin (100 mg/kg, i.p.). A femoral artery and contralateral vein are cannulated for direct blood pressure measurement and i.v. drug administration, respectively. Animals are allowed a 15 minute equilibration period before testing. Vehicle (1 ml/kg, i.v.) is administered over a 30 second period followed by a 0.3 ml saline flush administered over a 30 second period. Changes in diastolic blood pressure are recorded using a Beckman polygraph while heart rate is recorded as a derivative of the blood pressure pulse. The test compound is administered in the same manner as vehicle and a dose response curve is established. Percent changes in heart rate and blood pressure are recorded.

[1] = system: spontaneous hypertensive rat; test: blood pressure lowering effect in the spontaneous hypertensive rat (oral); assay type: in vivo; conditions: p.o., read-out: dose that lowers blood pressure (as low as)
Method: as §1
The blood pressure lowering effect in the spontaneous hypertensive rat is determined on oral administration.

[2] = biological target: T1, adenosine-2 (A-2) receptor (Rattus norvegicus, UniProt P30543); test: in vitro adenosine-2 (A-2) receptor binding: inhibition of specific 3H-NECA binding in rat striatal membranes; parameters: species or system male Sprague-Dawley rats; conditions: 4 nM 3H-NECA, in presence of 50 nM cyclopentyladenosine
T1 construct: striatal membrane preparations from corpus striatum of male Sprague-Dawley rats; from tissue; host or cells: corpus striatum membranes of male Sprague-Dawley rats
T1 sequence (P30543 whole entry): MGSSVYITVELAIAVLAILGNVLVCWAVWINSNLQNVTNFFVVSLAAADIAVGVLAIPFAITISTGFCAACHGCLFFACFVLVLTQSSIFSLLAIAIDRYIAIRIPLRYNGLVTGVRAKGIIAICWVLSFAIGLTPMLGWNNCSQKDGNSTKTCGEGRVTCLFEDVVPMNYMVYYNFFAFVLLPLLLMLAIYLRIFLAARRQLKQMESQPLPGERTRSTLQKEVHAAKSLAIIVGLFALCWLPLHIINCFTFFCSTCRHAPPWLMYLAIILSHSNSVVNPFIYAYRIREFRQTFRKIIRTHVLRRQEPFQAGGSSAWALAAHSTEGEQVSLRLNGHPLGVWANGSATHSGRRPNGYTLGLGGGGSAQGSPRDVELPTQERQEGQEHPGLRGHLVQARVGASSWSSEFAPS
Method: The concentration of a particular compound required to displace the specific binding of 4 nM ^3 H-NECA is determined in the presence of 50 nM cyclopentyladenosine.

Row | Compound | minimal effective dose (normotensive rat) [mg/kg] | minimal effective dose [1] [mg/kg] | IC50 [2] [nM]
1 | CCNC(=O)[C@H]1O[C@@H](n2cnc3c(N)nc(NCCc4ccc(CCC(=O)O)cc4)nc32)[C@H](O)[C@@H]1O [Example 2g, 2-[p-(2-carboxyethyl)-2-phenethylamino]-adenosine5'-(N-ethyl)-carboxamide] | ~0.005 | ~3 | 
2 | CCNC(=O)[C@H]1O[C@@H](n2cnc3c(N)nc(NCCC4CCCCC4)nc32)[C@H](O)[C@@H]1O [Example 2n, 2-(2-cyclohexylethylamino)-adenosine-5'-(N-ethyl)carboxamide hydrochloride] |  |  | ~13
